Common to all, as to type: cell-based
Assay [1] addresses T1, human TLR2 (Homo sapiens, UniProt O60603).
T1 construct: host or cells: HEK-Blue hTLR2 (HEK-293)
Briefly: HEK-Blue hTLR2 antagonism assay (SEAP reporter) with agonist Pam3CSK4 (TLR1/2 agonist). The settings on record: Table B; HEK-Blue hTLR2 cells, ~3×EC50 Pam3CSK4, 18 h, SEAP OD 655 nm, 8-point dilutions.

Assay [2] concerns the target T1, human TLR2. Put plainly: HEK-Blue hTLR2 antagonism assay (SEAP reporter) with agonist Pam2CSK4 (TLR2/6 agonist). Conditions: Table B; HEK-Blue hTLR2 cells, ~3×EC50 Pam2CSK4, 18 h, SEAP OD 655 nm, 8-point dilutions.
The target of the next assay is T2, human TLR9 (Homo sapiens, UniProt Q9NR96).
T2 construct: host or cells: HEK-Blue hTLR9 (HEK-293)
T2 sequence (Q9NR96 26-1032): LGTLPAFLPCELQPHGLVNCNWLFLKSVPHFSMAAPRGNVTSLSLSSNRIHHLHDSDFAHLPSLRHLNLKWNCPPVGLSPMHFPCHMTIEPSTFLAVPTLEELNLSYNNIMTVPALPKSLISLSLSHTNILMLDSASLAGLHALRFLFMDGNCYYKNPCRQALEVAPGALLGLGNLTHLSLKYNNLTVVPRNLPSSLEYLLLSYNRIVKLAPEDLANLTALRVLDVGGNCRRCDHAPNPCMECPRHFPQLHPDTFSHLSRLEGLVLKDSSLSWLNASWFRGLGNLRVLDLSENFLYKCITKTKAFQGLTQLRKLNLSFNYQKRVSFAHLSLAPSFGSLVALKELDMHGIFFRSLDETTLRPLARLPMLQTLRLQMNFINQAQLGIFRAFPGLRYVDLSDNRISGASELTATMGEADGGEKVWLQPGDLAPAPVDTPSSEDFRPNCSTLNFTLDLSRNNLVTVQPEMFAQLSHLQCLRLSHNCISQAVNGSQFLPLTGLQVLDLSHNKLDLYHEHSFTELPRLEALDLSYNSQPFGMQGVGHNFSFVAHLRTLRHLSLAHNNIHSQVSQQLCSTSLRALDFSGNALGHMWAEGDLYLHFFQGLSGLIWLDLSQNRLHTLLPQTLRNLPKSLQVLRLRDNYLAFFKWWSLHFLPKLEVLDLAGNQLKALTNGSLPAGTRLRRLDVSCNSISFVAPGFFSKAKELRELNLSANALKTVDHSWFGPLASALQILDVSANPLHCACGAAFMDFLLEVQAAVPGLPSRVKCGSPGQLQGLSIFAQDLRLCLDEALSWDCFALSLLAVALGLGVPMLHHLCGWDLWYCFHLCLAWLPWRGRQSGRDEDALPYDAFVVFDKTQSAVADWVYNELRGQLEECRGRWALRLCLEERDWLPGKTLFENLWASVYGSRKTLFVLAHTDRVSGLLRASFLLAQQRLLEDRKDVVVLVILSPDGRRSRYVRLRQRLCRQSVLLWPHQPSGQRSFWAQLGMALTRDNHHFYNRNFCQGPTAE
Put plainly: HEK-Blue hTLR9 assay (SEAP reporter) with agonist ODN 2006. The settings on record: Table B; HEK-Blue hTLR9 cells, ~3×EC50 ODN 2006, 18 h; exact values 8-point dilutions, approximate (~ or <) 4-point dilutions; read-out: ~IC50 (μM) with ODN2006. The procedure:
Synthetic ODNs (ODN 2006 (ODN7909), class B CpG oligonucleotide, TLR9 agonist) was obtained from InvivoGen and was dissolved in endotoxin-free water to a concentration 500 μM, vortexed until complete solubilization, and stored in aliquots at −20° C. Prior to addition to cells, an aliquot of the dissolved ligand was vortexed shortly and then was diluted in medium to 50 μM. The EC50 of the agonist for each assay run was determined by using 3-fold dilutions from the starting concentration 10 μM.
Test compounds were solubilized fresh to 10-20 mM stocks in DMSO and sonicated for 5-10 minutes in a water bath sonicator. Serial dilutions were prepared in DMSO, and then diluted in medium. The final concentration of DMSO used in the assay was 1%.
HEK-Blue hTLR9 reporter cells (InvivoGen) are HEK-293 cells stably expressing both the human TLR9 gene and a secreted embryonic alkaline phosphatase (SEAP) reporter construct downstream of NFκB promotor sites. HEK-Blue hTLR9 cells were cultured according to manufacturer's protocol using Dulbecco's Modified Eagle Medium (DMEM; Gibco) containing 1× GlutaMax (Gibco), 10% heat-inactivated Fetal Bovine Serum (Gibco), Pen-Strep (50 U/mL penicillin, 50 μg/mL streptomycin, Gibco), 100 μg/mL Normocin (InvivoGen), and the selective antibiotics, 10 μg/mL Blasticidin (InvivoGen), and 100 μg/mL Zeocin (InvivoGen). Quanti-Blue reagent (InvivoGen) for detection and quantification of secreted alkaline phosphatase was dissolved in 100 mL of endotoxin-free water, warmed to 37° C. for 30 minutes and then filtered using a 0.2 μm membrane.
On day 1, 50 μL of each test compound dilution in duplicates or a vehicle control was added to each well of a 96-well plate followed by addition of 150 μL of HEK-Blue hTLR9 cell suspension (1×10^5 cells/well) and incubated at 37° C./5% CO2 for 2 h. Next, 50 μL of an approximate 3×EC50 concentration of TLR9 agonist, ODN 2006, was added to the wells containing test compounds or the vehicle control. The plates were then incubated at 37° C./5% CO2 for 18 h. For each assay run, vehicle-treated HEK-Blue hTLR9 cells were treated with serial dilutions of agonist to determine EC50 values for the respective run.
On day 2, secreted alkaline phosphatase (SEAP) activity was detected in cell culture supernatants. In brief, 30 μL was collected from each well and transferred to a 96-well plate. Next, 200 μL of Quanti-Blue detection reagent was added to each well. Plates were incubated at 37° C. for 60 min. and SEAP activity was assessed by spectrophotometer OD reading at 655 nm. Table A and Table B show the activities of the compounds tested in HEK-Blue hTLR9 cells against ODN 2006. The activities of the compounds against ODN 2006 are presented as IC50 values which were defined as concentrations of the compounds where percent inhibition of the signal induced by agonist is equal to 50. Exact IC50 values were calculated based on 8-point dilutions for each compound. Approximate IC50 values (˜ or <) were calculated based on 4-point dilutions for each compound.

The text below walks through data of US11299487B2, “Compounds and compositions as modulators of TLR signaling” (Neuropore Therapies, Inc., priority 2019, dated 2022).

Where only a bound is given, the exact number is not on record here.

T1 sequence (O60603 21-784): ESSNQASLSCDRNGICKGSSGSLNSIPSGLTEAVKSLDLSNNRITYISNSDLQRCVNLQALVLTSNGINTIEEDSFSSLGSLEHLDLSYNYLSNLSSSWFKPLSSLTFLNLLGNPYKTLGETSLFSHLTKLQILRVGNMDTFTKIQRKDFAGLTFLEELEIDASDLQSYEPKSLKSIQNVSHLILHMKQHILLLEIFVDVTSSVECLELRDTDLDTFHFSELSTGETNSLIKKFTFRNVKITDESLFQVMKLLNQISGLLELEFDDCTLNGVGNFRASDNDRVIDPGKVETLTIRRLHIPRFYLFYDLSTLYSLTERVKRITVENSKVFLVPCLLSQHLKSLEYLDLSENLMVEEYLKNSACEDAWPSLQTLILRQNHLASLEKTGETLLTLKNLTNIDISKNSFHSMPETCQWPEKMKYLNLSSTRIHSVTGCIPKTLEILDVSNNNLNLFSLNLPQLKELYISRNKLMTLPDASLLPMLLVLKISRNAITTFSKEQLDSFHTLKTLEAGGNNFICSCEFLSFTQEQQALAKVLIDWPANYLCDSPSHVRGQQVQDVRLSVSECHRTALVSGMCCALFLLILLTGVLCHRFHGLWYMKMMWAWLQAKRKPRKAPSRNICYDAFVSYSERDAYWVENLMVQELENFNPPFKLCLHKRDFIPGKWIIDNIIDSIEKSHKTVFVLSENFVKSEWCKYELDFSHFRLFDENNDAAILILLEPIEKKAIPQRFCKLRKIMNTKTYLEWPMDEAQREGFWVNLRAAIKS

`O=Cc1cc(NC(=O)Nc2ccc(N3CCCC3)cc2)cc(F)c1O` [Compound B65, 1-(3-fluoro-5-formyl-4-hydroxyphenyl)-3-(4-(pyrrolidin-1-yl)phenyl)urea]: the IC50 on human TLR2 [1] was 3.7 µM; at human TLR2 [2] it was 8.7 µM; at human TLR9 it was below 1.2 µM.
On the same counts, the results for `O=Cc1cc(C(=O)Nc2ccc(N3CCC(F)(F)C3)cc2)cc(F)c1O` [Compound B67, N-(4-(3,3-difluoropyrrolidin-1-yl)phenyl)-3-fluoro-5-formyl-4-hydroxybenzamide] are 1.2 µM, 3.3 µM and below 1.2 µM.
Taken in the same sequence, the figures for `O=Cc1cc(C(=O)Nc2ccc(N3CCC(F)(F)CC3)cc2)cc(F)c1O` [Compound B68, N-(4-(4,4-difluoropiperidin-1-yl)phenyl)-3-fluoro-5-formyl-4-hydroxybenzamide] were 1 µM, 3.5 µM and below 1.2 µM.
Taken in the same sequence, the figures for `O=Cc1cc(C(=O)Nc2cccc(N3CCCC3)c2)cc(F)c1O` [Compound B71, 3-fluoro-5-formyl-4-hydroxy-N-(3-(pyrrolidin-1-yl)phenyl)benzamide] were 1.7 µM, 2.6 µM and around 2.5 µM.
In the case of `CC1(C)CCN(c2ccc(NC(=O)c3cc(F)c(O)c(C=O)c3)cc2)C1` [Compound B73, N-(4-(3,3-dimethylpyrrolidin-1-yl)phenyl)-3-fluoro-5-formyl-4-hydroxybenzamide], the IC50 amounted to 0.3 µM on human TLR2 [1], 0.6 µM at human TLR2 [2] and 0.3 µM on human TLR9.
Take `O=Cc1cc(C(=O)Nc2ccc(N3CC4CC4C3)cc2)cc(F)c1O` (stereo not drawn) [Compound B74, N-(4-(3-azabicyclo[3.1.0]hexan-3-yl)phenyl)-3-fluoro-5-formyl-4-hydroxybenzamide]: the IC50 on human TLR2 [1] is 0.8 µM; on human TLR2 [2], 1.6 µM; on human TLR9, below 1.2 µM.
For the compound `O=Cc1cc(C(=O)Nc2ccc(N3C[C@H]4COC[C@H]4C3)cc2)cc(F)c1O` [Compound B75, 3-fluoro-5-formyl-4-hydroxy-N-(4-((3aR,6aS)-tetrahydro-1H-furo[3,4-c]pyrrol-5(3H)-yl)phenyl)benzamide], the half-inhibitory concentration (IC50) at human TLR2 [1] was 6 µM; at human TLR2 [2], 13 µM; at human TLR9, around 4.7 µM.
Taken in the same sequence, the figures for `O=Cc1cc(C(=O)Nc2ccc(N3C[C@H]4CCC[C@H]4C3)cc2)cc(F)c1O` [Compound B76, 3-fluoro-5-formyl-N-(4-((3aR,6aS)-hexahydrocyclopenta[c]pyrrol-2(1H)-yl)phenyl)-4-hydroxybenzamide] were 0.6 µM, 1.2 µM and below 1.2 µM.
Consider `O=Cc1cc(C(=O)Nc2ccc(N3CC4(CCC4)C3)cc2)cc(F)c1O` [Compound B77, N-(4-(2-azaspiro[3.3]heptan-2-yl)phenyl)-3-fluoro-5-formyl-4-hydroxybenzamide], for which the IC50 on human TLR2 [1] is 0.3 µM; at human TLR2 [2], 0.6 µM; at human TLR9, below 1.2 µM.
On the same counts, the results for `CC1(C)CN(c2ccc(NC(=O)c3cc(F)c(O)c(C=O)c3)cn2)c2ccccc21` [Compound B87, N-(6-(3,3-dimethylindolin-1-yl)pyridin-3-yl)-3-fluoro-5-formyl-4-hydroxybenzamide] are 0.4 µM, 0.5 µM and 0.1 µM.
